Structures are written as SMILES.

Test [1] deals with MNK2a (pre-activated GST-MNK2a) (Homo sapiens (Human), UniProt Q9HBH9). The test can be described thus: MNK2a in vitro kinase assay (assay 1), ADP-Glo. The test is classed as biochemical. The conditions noted are these: read-out: Mnk2 IC50. Here is the method:
A. MNK2a In Vitro Kinase Assay (Assay 1)
The inhibition of kinase activity of MNK2a was assessed using pre-activated GST-MNK2a. The white, 384-well OptiPlate F plates were purchased from PerkinElmer. The ADP-Glo Kinase Assay (including ultra pure ATP) was purchased from Promega (V9103). Activated MNK2a was obtained as described in WO2011/104340. […] ID No. 5 of WO 2011/104340 by the C-terminal —CONH2 group, was purchased from Thermo Fisher Scientific. All other materials were of highest grade commercially available. Compounds are tested in either serial dilutions or single dose concentrations. The compound stock solutions are 10 mM in 100% DMSO The serial compound dilutions are prepared in 100% DMSO followed by 1:27.3 intermediate dilution in assay buffer. The final DMSO concentration in assay will be <3%.
In the 384-well plates 3 μl of test compound from the intermediate dilution is mixed with 4 μl of the activated MNK2 enzyme (final concentration of 10 nM) and 4 μl of the peptide (final concentration of 25 μM)/ultra pure ATP (final concentration of 20 μM), all dissolved in assay buffer. This step is followed by an incubation time of 90 min, then 10 μl of ADP Glo reagent are added, followed by 40 min of incubation. Then 20 μl of kinase detection reagent are admixed. The plates are sealed and after an incubation period of 30 min, the luminescence signal is measured in an Envision reader to determine the amount of produced ADP. All incubation steps are performed at room temperature.
The assay buffer consists of 20 mM HEPES, 2 mM DTT, 0.01% BSA, 20 mM MgCl2 and 0.1% Pluronic F-127.
The luminescent signal generated is proportional to the ADP concentration produced and is correlated with activated MNK2 activity. The analysis of the data is performed by the calculation of the percentage of ATP consumption of activated MNK2 in the presence of the test compound compared to the consumption of ATP in the presence of activated MNK2 without compound. (RLU(sample)−RLU(low control))*100/(RLU(high value)−RLU(low control))
[RLU=Relative Luminescence Units]
Values of more than 100% CTL are normally related to compound/sample specific physico-chemical properties (e.g. solubility, light absorbance, fluorescence).
IC50 values based on dose response curves are calculated with the AssayExplorer software.
(In general: In ADP-Glo the light output rises with the ADP produced.)

Test [2] addresses MNK1a (pre-activated GST-MNK1a) (Homo sapiens (Human), UniProt Q9BUB5). The test can be described thus: MNK1 in vitro kinase assay (assay 2), Z'-LYTE. The test is classed as biochemical. To be noted: for inhibition at 1 µM: compound concentration of 1 μM, read-out: Mnk1 % Inh. From the text: B. MNK1 In Vitro Kinase Assay (Assay 2)
MNK1 Data can be obtained from the MNK1 Z′-LYTE® assay. The MNK1 Z′-LYTE® screening protocol and assay conditions are also described on www.invitrogen.com.
The assay is described as follows:
The Z′-LYTE® biochemical assay employs a fluorescence-based, coupled-enzyme format and is based on the differential sensitivity of phosphorylated and non-phosphorylated peptides to proteolytic cleavage. The peptide substrate is labeled with two fluorophores—one at each end—that make up a FRET pair.
In the primary reaction, the kinase transfers the gamma-phosphate of ATP to a single tyrosine, serine or threonine residue in a synthetic FRET-peptide. In the secondary reaction, a site-specific protease recognizes and cleaves non-phosphorylated FRET-peptides. Phosphorylation of FRET-peptides suppresses cleavage by the Development Reagent. Cleavage disrupts FRET between the donor (i.e., coumarin) and acceptor (i.e., fluorescein) fluorophores on the FRET-peptide, whereas uncleaved, phosphorylated FRET-peptides maintain FRET. A ratiometric method, which calculates the ratio (the Emission Ratio) of donor emission to acceptor emission after excitation of the donor fluorophore at 400 nm, is used to quantitate reaction progress, as shown in the equation below. Emission Ratio=Coumarin Emission(445 nm)/Fluorescein Emission(520 nm)
The inhibition of kinase activity of MNK1a was assessed using pre-activated GST-MNK1a. The 2×MKNK1 (MNK1) mixture is prepared in 50 mM HEPES pH 7.5, 0.01% BRIJ-35, 10 mM MgCl2, 4 mM MnCl2, 1 mM EGTA, 2 mM DTT. The final 10 μL Kinase Reaction consists of 13.5-54 ng MKNK1 (MNK1) and 2 μM Ser/Thr 07 in 50 mM HEPES pH 7.5, 0.01% BRIJ-35, 10 mM MgCl2, 2 mM MnCl2, 1 mM EGTA, 1 mM DTT. After the 1 hour Kinase Reaction incubation, 5 μL of a 1:32768 dilution of Development Reagent A is added.
The Test Compounds are screened in 1% DMSO (final) in the well.
All Peptide/Kinase Mixtures are diluted to a 2×working concentration in the MNK1 Kinase Buffer.
All ATP Solutions are diluted to a 4×working concentration in Kinase Buffer (50 mM HEPES pH 7.5, 0.01% BRIJ-35, 10 mM MgCl2, 1 mM EGTA).
Development Reagent Solution:
The Development Reagent is diluted in Development Buffer
Bar-coded Corning, low volume NBS, 384-well plate (Corning Cat. #3676)
1. 2.5 μL—4×Test Compound
2. 5 μL—2×Peptide/Kinase Mixture
5. 60-minute Kinase Reaction incubation at room temperature
6. 5 μL—Development Reagent Solution
8. 60-minute Development Reaction incubation at room temperature
9. Read on fluorescence plate reader and analyze the data
The following equations are used for each set of data points:
Correction for Background Fluorescence: FISample−FITCFI Ctl Emission Ratio (using values corrected for background fluorescence):Coumarin Emission (445 nm)/Fluorescein Emission (520 nm)
% Phosphorylation (% Phos): 1−((Emission Ratio×F100%)−C100%)/((C0%−C100%)+[Emission Ratio×(F100%−F0%)])*100
% Inhibition: 1−(% PhosSample/% Phos0% Inhibition Ctl)*100 FI=Fluorescence Intensity C100%=Average Coumarin emission signal of the 100% Phos. Control C0%=Average Coumarin emission signal of the 0% Phos. Control F100%=Average Fluorescein emission signal of the 100% Phos. Control F0%=Average Fluorescein emission signal of the 0% Phos. Control
SelectScreen® Kinase Profiling Service uses XLfit from IDBS. The dose response curve is curve fit to model number 205 (sigmoidal dose-response model).

Chain of MNK2a (pre-activated GST-MNK2a) (Q9HBH9 whole entry): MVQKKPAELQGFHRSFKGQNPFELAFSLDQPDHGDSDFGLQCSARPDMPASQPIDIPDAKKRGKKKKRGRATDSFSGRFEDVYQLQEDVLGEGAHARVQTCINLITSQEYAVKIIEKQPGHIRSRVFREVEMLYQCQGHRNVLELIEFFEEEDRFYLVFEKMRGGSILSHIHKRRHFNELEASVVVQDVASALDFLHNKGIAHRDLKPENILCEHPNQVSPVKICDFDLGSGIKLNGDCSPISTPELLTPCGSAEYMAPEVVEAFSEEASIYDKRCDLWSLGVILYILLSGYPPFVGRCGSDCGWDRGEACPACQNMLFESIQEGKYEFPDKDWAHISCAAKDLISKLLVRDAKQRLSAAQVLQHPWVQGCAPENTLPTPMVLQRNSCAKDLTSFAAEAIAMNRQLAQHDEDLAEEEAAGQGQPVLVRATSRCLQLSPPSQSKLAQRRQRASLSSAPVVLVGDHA
Chain of MNK1a (pre-activated GST-MNK1a) (Q9BUB5 other isoform, or with tags, fused parts or gaps): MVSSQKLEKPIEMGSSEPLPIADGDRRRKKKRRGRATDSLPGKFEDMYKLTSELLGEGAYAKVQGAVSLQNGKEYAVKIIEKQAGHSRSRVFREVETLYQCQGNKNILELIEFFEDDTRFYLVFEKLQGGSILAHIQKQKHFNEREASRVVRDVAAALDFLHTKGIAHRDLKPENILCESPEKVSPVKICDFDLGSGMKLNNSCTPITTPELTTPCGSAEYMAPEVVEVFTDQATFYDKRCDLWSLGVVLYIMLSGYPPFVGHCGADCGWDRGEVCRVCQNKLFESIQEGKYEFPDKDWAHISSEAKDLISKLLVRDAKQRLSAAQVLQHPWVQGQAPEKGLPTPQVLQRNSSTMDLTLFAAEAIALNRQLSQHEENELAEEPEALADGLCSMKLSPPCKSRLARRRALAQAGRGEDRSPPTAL

As for `COc1c(N=S(C)(C)=O)cc2ncnc(Nc3ccc(F)cc3O[C@H](C)C(=O)NCC(F)(F)F)c2c1C` [Example 2.24], in test [1], the IC50 (usually the concentration at which inhibition is half-maximal) turned out to be 4.4 nM. In addition, the inhibition at 1 µM in test [2] is 100%.
For the compound `COc1c(N=S(C)(C)=O)cc2ncnc(Nc3ccc(F)cc3O[C@@H]3CO[C@@H]4CCO[C@@H]43)c2c1C` [Example 2.25], the concentration for half-maximal inhibition (IC50) in test [1] stood at 0.8 nM; in test [2], 18 nM.
For `COc1c(N=S2(=O)CCC2)cc2ncnc(Nc3ccc(F)cc3O[C@@H]3CO[C@H]4[C@@H]3OC[C@@H]4F)c2c1C` [Example 2.26] the same measures were 1 nM and 64 nM.
On the same counts, the results for `COc1c(N=S2(=O)CCC2)cc2ncnc(Nc3cc4cn[nH]c4cc3OC(C)C)c2c1C` [Example 2.27] are 3.9 nM and 87 nM.
In the case of `COc1c(N=S(C)(C)=O)cc2ncnc(Nc3ccc(Cl)cc3O[C@H](C)C(=O)NCC(F)(F)F)c2c1C` [Example 2.29], the IC50 in test [1] was 2.6 nM. Also, the inhibition at 1 µM in test [2] amounted to 96%.
On the same counts, the results for `COc1c(N=S2(=O)CCNCC2)cc2ncnc(Nc3ccc(F)cc3O[C@@H]3CO[C@@H]4CCO[C@@H]43)c2c1C` [Example 2.30] are 1.3 nM and 105%.
For `COc1c(N=S(C)(=O)C(C)C)cc2ncnc(Nc3ccc(F)cc3O[C@@H]3CO[C@@H]4CCO[C@@H]43)c2c1C` (some centres unmarked) [Example 2.31] the same measures were 2.1 nM and 96%.
In the case of `Cc1c(OCCN2CCN(C)C(=O)C2)c(N=S(C)(C)=O)cc2ncnc(Nc3ccc(F)cc3O[C@H](C)C(F)(F)F)c12` [Example 2.32], the values for the half-inhibitory concentration (IC50) in test [1] and in test [2] were 4.1 nM and 65 nM, respectively.
With `COc1c(N=S2(=O)CCCC2)cc2ncnc(Nc3ccc(F)cc3O[C@@H]3CO[C@@H]4CCO[C@@H]43)c2c1Cl` [Example 2.33], in test [1], the half-inhibitory concentration (IC50) was 1.6 nM. Besides, in test [2], the inhibition at 1 µM worked out at 106%.
Take `COc1c(N=S(C)(C)=O)cc2ncnc(Nc3ccc(F)cc3OC3CCOCC3)c2c1Cl` [Example 2.34]: the half-inhibitory concentration (IC50) in test [1] came to 2 nM. In addition, the inhibition at 1 µM in test [2] amounted to 94%.
Take `COc1c(N=S2(=O)CCC2)cc2ncnc(Nc3ccc(F)cc3O[C@H](C)C(F)(F)F)c2c1C` [Example 2.35]: the concentration for half-maximal inhibition (IC50) in test [1] was found to be 1.5 nM; in test [2], 74 nM.
As to `COc1c(N=S2(=O)CCCC2)cc2ncnc(Nc3ccc(F)cc3O[C@@H]3CO[C@H]4[C@@H]3OC[C@H]4OC)c2c1C` [Example 2.36], the IC50 in test [1] worked out at 1.8 nM; in test [2], 15 nM.
On to `COc1c(N=S(C)(C)=O)cc2ncnc(Nc3ccc(F)cc3O[C@H](C)C(=O)N[C@@H](C)C(F)(F)F)c2c1C` [Example 2.37], for which the IC50 in test [1] was determined as 4.1 nM. Also, the inhibition at 1 µM in test [2] amounted to 88%.
In the case of `COc1c(N=S(C)(C)=O)cc2ncnc(Nc3ccc(F)cc3O[C@H]3COC[C@@H]3O)c2c1C` [Example 2.38], the figures for the IC50 in test [1] and in test [2] were 2 nM and 55 nM, respectively.
For the compound `COc1c(N=S2(=O)CCC2)cc2ncnc(Nc3ccc(Cl)cc3O[C@H](C)C(=O)NCC(F)(F)F)c2c1C` [Example 2.39], the IC50 in test [1] was 2.4 nM; in test [2], 66 nM.
On the same counts, the results for `COc1c(N=S(C)(C)=O)cc2ncnc(Nc3ccc(F)cc3O[C@@H]3CO[C@@H]4CCO[C@@H]43)c2c1Cl` [Example 2.40] are 1.3 nM and 16 nM.
As to `COc1c(N=S2(=O)CCC2)cc2ncnc(Nc3ccc(F)cc3O[C@@H]3CO[C@H]4[C@@H]3OC[C@H]4OC)c2c1C` [Example 2.41], the 50% inhibitory concentration (IC50) in test [1] worked out at 1.6 nM. For the same compound, the inhibition at 1 µM in test [2] worked out at 106%.
`COc1c(N=S2(=O)CCC2)cc2ncnc(Nc3ccc(F)cc3O[C@@H]3CO[C@@H]4CCO[C@@H]43)c2c1C` [Example 2.42]: the IC50 in test [1] is 1.2 nM; in test [2] it was 52 nM.
Consider `COc1c(N=S(C)(=O)C2CC2)cc2ncnc(Nc3ccc(F)cc3O[C@@H]3CO[C@@H]4CCO[C@@H]43)c2c1C` (some centres unmarked) [Example 2.43], for which the IC50 in test [1] was 2.3 nM. Further, the inhibition at 1 µM in test [2] is 97%.
Regarding `COc1c(N=S2(=O)CCCC2)cc2ncnc(Nc3ccc(F)cc3O[C@H]3CC[C@H](O)CC3)c2c1C` [Example 2.44], the half-inhibitory concentration (IC50) in test [1] was determined as 1.4 nM; in test [2], 41 nM.
On the same counts, the results for `COc1c(N=S(C)(C)=O)cc2ncnc(Nc3ccc(F)cc3O[C@@H]3CO[C@H]4[C@@H]3OC[C@H]4OC)c2c1C` [Example 2.45] are 1.7 nM and 17 nM.
On the same counts, the results for `COc1c(N=S2(=O)CCCC2)cc2ncnc(Nc3ccc(F)cc3O[C@H]3COC[C@@H]3O)c2c1C` [Example 2.46] are 2 nM and 37 nM.
For `COc1c(N=S(C)(C)=O)cc2ncnc(Nc3ccc(F)cc3O[C@H](C)C(=O)NCC(F)(F)F)c2c1Cl` [Example 2.47] the same measures were 1.4 nM and 28 nM.
In the case of `COc1c(N=S2(=O)CCCC2)cc2ncnc(Nc3ccc(F)cc3O[C@H]3CCOC3)c2c1C` [Example 2.48], the IC50 turned out to be 1.3 nM in test [1] and 22 nM in test [2].
For `COc1c(N=S(C)(C)=O)cc2ncnc(Nc3cccnc3O[C@@H]3CO[C@@H]4CCO[C@@H]43)c2c1C` [Example 2.49], the IC50 in test [1] amounted to 2.3 nM. Moreover, the inhibition at 1 µM in test [2] amounted to 95%.
Turning to `COc1c(N=S(C)(C)=O)cc2ncnc(Nc3ccc(F)cc3O[C@H]3CCOC3)c2c1C` [Example 2.50], the 50% inhibitory concentration (IC50) in test [1] stood at 2 nM; in test [2], 44 nM.
On to `Cc1c(O)c(N=S(C)(C)=O)cc2ncnc(Nc3ccc(F)cc3O[C@H](C)C(F)(F)F)c12` [Example 2.51], for which the half-inhibitory concentration (IC50) in test [1] turned out to be 6.9 nM. In test [2], the inhibition at 1 µM worked out at 77%.
On the same counts, the results for `COc1c(N=S2(=O)CCCC2)cc2ncnc(Nc3ccc(F)cc3O[C@H](C)C(=O)NCC(F)(F)F)c2c1C` [Example 2.52] are 2.3 nM and 100%.

The values above are taken from US10167296B2, “Sulfoximine substituted quinazolines for pharmaceutical compositions” (EVOTEC INTERNATIONAL GMBH, priority 2014, dated 2019).
